{"source": "paper PMC5218480", "about": "(PLoS ONE, 2017)", "system": "MV-4-11 cells", "test": "Gene expression microarray analysis (Affymetrix PrimeView) and GSEA", "assay_type": "cell-based, human", "parameters": "RFU PODN (11730768_x_at) / Fold change /veh PODN (11730768_x_at) / RFU LINC00158 (11744669_a_at) / Fold change /veh LINC00158 (11744669_a_at) / RFU DUSP10 (11751237_a_at) / Fold change /veh DUSP10 (11751237_a_at) / RFU ID3 (11757404_x_at) / Fold change /veh ID3 (11757404_x_at) / RFU PLEKHG5 (11737974_s_at) / Fold change /veh PLEKHG5 (11737974_s_at) / RFU LRRC4B (11730491_at) / Fold change /veh LRRC4B (11730491_at) / RFU GIMAP4 (11747438_a_at) / Fold change /veh GIMAP4 (11747438_a_at) / RFU KRT8 (11758183_x_at) / Fold change /veh KRT8 (11758183_x_at) / RFU CNN1 (11734310_a_at) / Fold change /veh CNN1 (11734310_a_at) / RFU VPS37D (11726825_at) / Fold change /veh VPS37D (11726825_at) / RFU C10orf10 (11716522_x_at) / Fold change /veh C10orf10 (11716522_x_at) / RFU KIR2DL2 /// KIR2DL4 /// KIR2DL5A /// KIR2DL5B /// KIR2DS1 /// KIR2DS2 /// KIR2DS3 /// KIR2DS4 /// KIR3DL3 /// KIR3DL3 /// KIR3DS1 (11738374_at) / Fold change /veh KIR2DL2 /// KIR2DL4 /// KIR2DL5A /// KIR2DL5B /// KIR2DS1 /// KIR2DS2 /// KIR2DS3 /// KIR2DS4 /// KIR3DL3 /// KIR3DL3 /// KIR3DS1 (11738374_at) / RFU C1QL1 (11718748_at) / Fold change /veh C1QL1 (11718748_at) / RFU TMPRSS4 (11747572_a_at) / Fold change /veh TMPRSS4 (11747572_a_at) / RFU HAMP (11756126_x_at) / Fold change /veh HAMP (11756126_x_at) / RFU RNFT2 (11725882_a_at) / Fold change /veh RNFT2 (11725882_a_at) / RFU NR4A2 (11747474_a_at) / Fold change /veh NR4A2 (11747474_a_at) / RFU ABCC12 (11746883_a_at) / Fold change /veh ABCC12 (11746883_a_at) / RFU TMEM136 (11760407_x_at) / Fold change /veh TMEM136 (11760407_x_at) / RFU CLDN22 /// WWC2 (11732394_at) / Fold change /veh CLDN22 /// WWC2 (11732394_at) / RFU HLA-DPB1 (11760878_x_at) / Fold change /veh HLA-DPB1 (11760878_x_at) / RFU SPINT1 (11716480_a_at) / Fold change /veh SPINT1 (11716480_a_at) / RFU GAP43 (11754022_s_at) / Fold change /veh GAP43 (11754022_s_at) / RFU A4GNT (11735810_at) / Fold change /veh A4GNT (11735810_at) / RFU PRB3 (11715151_x_at) / Fold change /veh PRB3 (11715151_x_at) / RFU TUBB4B (11761932_at) / Fold change /veh TUBB4B (11761932_at) / RFU CAPN14 (11732068_a_at) / Fold change /veh CAPN14 (11732068_a_at) / RFU TMCC2 (11721928_a_at) / Fold change /veh TMCC2 (11721928_a_at) / RFU IRGQ (11745062_a_at) / Fold change /veh IRGQ (11745062_a_at) / RFU FAM174B (11720279_a_at) / Fold change /veh FAM174B (11720279_a_at) / RFU TMPRSS4 (11748680_a_at) / Fold change /veh TMPRSS4 (11748680_a_at) / RFU FAM212B (11763350_a_at) / Fold change /veh FAM212B (11763350_a_at) / RFU PLEKHG5 (11743358_a_at) / Fold change /veh PLEKHG5 (11743358_a_at) / RFU ZSCAN30 (11745921_a_at) / Fold change /veh ZSCAN30 (11745921_a_at) / RFU CMKLR1 (11741424_a_at) / Fold change /veh CMKLR1 (11741424_a_at) / RFU LOC101060620 /// MAPK8IP1 (11723275_at) / Fold change /veh LOC101060620 /// MAPK8IP1 (11723275_at) / RFU SPTSSB (11747773_x_at) / Fold change /veh SPTSSB (11747773_x_at) / RFU PRSS12 (11739890_at) / Fold change /veh PRSS12 (11739890_at) / RFU BIN1 (11741810_x_at) / Fold change /veh BIN1 (11741810_x_at) / RFU WNT11 (11732464_a_at) / Fold change /veh WNT11 (11732464_a_at) / RFU C10orf10 (11716521_a_at) / Fold change /veh C10orf10 (11716521_a_at) / RFU C5orf56 (11738089_at) / Fold change /veh C5orf56 (11738089_at) / RFU CYB561 (11721691_x_at) / Fold change /veh CYB561 (11721691_x_at) / RFU ANKRD19P (11752326_a_at) / Fold change /veh ANKRD19P (11752326_a_at) / RFU OR2T12 /// OR2T33 /// OR2T8 (11738714_s_at) / Fold change /veh OR2T12 /// OR2T33 /// OR2T8 (11738714_s_at) / RFU VCAN (11748164_a_at) / Fold change /veh VCAN (11748164_a_at) / RFU JSRP1 (11732532_at) / Fold change /veh JSRP1 (11732532_at) / RFU KRTAP10-11 (11738290_x_at) / Fold change /veh KRTAP10-11 (11738290_x_at) / RFU MYO3A (11730013_a_at) / Fold change /veh MYO3A (11730013_a_at) / RFU EBF3 (11725865_a_at) / Fold change /veh EBF3 (11725865_a_at) / RFU CAMK2N1 (11719241_x_at) / Fold change /veh CAMK2N1 (11719241_x_at) / RFU C5orf56 (11738088_a_at) / Fold change /veh C5orf56 (11738088_a_at) / RFU OLFML3 (11715873_a_at) / Fold change /veh OLFML3 (11715873_a_at) / RFU LOC100653217 /// NTM (11731650_a_at) / Fold change /veh LOC100653217 /// NTM (11731650_a_at) / RFU MAPK11 (11762145_a_at) / Fold change /veh MAPK11 (11762145_a_at) / RFU FIZ1 (11724087_x_at) / Fold change /veh FIZ1 (11724087_x_at) / RFU OASL (11726364_x_at) / Fold change /veh OASL (11726364_x_at) / RFU SOX15 (11748057_x_at) / Fold change /veh SOX15 (11748057_x_at) / RFU CD79A (11719716_a_at) / Fold change /veh CD79A (11719716_a_at) / RFU HIST1H1D (11736915_at) / Fold change /veh HIST1H1D (11736915_at) / RFU CASKIN2 (11723855_a_at) / Fold change /veh CASKIN2 (11723855_a_at) / RFU LOC730098 (11760151_x_at) / Fold change /veh LOC730098 (11760151_x_at) / RFU OR4N2 (11742367_at) / Fold change /veh OR4N2 (11742367_at) / RFU PRRT2 (11749266_a_at) / Fold change /veh PRRT2 (11749266_a_at) / RFU SNX32 (11753110_a_at) / Fold change /veh SNX32 (11753110_a_at) / RFU CDHR5 (11726645_a_at) / Fold change /veh CDHR5 (11726645_a_at) / RFU RCAN1 (11760418_a_at) / Fold change /veh RCAN1 (11760418_a_at) / RFU FAM167A (11723789_a_at) / Fold change /veh FAM167A (11723789_a_at) / RFU FAM26E (11764081_at) / Fold change /veh FAM26E (11764081_at) / RFU ISYNA1 (11749810_s_at) / Fold change /veh ISYNA1 (11749810_s_at) / RFU ACY1 (11761880_at) / Fold change /veh ACY1 (11761880_at) / RFU 11764098_at / Fold change /veh 11764098_at / RFU SAMD14 (11745864_x_at) / Fold change /veh SAMD14 (11745864_x_at) / RFU NPB (11741838_a_at) / Fold change /veh NPB (11741838_a_at) / RFU TMPRSS6 (11731388_a_at) / Fold change /veh TMPRSS6 (11731388_a_at) / RFU KRTAP10-2 (11738614_at) / Fold change /veh KRTAP10-2 (11738614_at) / RFU ARHGAP8 /// PRR5-ARHGAP8 (11727945_x_at) / Fold change /veh ARHGAP8 /// PRR5-ARHGAP8 (11727945_x_at) / RFU KRTAP5-7 /// NADSYN1 (11734609_at) / Fold change /veh KRTAP5-7 /// NADSYN1 (11734609_at) / RFU RASL12 (11751679_a_at) / Fold change /veh RASL12 (11751679_a_at) / RFU CDKN2B (11736163_a_at) / Fold change /veh CDKN2B (11736163_a_at) / RFU PRF1 (11729649_at) / Fold change /veh PRF1 (11729649_at) / RFU, ZNF638 /// ZNF638-IT1 / Fold change vs veh, ZNF638 /// ZNF638-IT1 / RFU, PANK3 / Fold change vs veh, PANK3 / RFU, SH3YL1 / Fold change vs veh, SH3YL1 / RFU, ZEB2 / Fold change vs veh, ZEB2 / RFU, NRIP1 / Fold change vs veh, NRIP1 / RFU, PTTG1IP / Fold change vs veh, PTTG1IP / RFU, CAPN2 / Fold change vs veh, CAPN2 / RFU, MED14 / Fold change vs veh, MED14 / RFU, SNORA58 / Fold change vs veh, SNORA58 / RFU, C1orf63 / Fold change vs veh, C1orf63 / RFU, LRRFIP1 / Fold change vs veh, LRRFIP1 / RFU, NDUFAF7 / Fold change vs veh, NDUFAF7 / RFU, SLC12A2 / Fold change vs veh, SLC12A2 / RFU, IBTK / Fold change vs veh, IBTK / RFU, ESF1 / Fold change vs veh, ESF1 / Fold change vs veh, TMEM50B / RFU, TAOK1 / Fold change vs veh, TAOK1 / RFU, ACBD3 / Fold change vs veh, ACBD3 / RFU, TMA16 / Fold change vs veh, TMA16 / RFU, RWDD3 / Fold change vs veh, RWDD3 / RFU, BCAT1 / Fold change vs veh, BCAT1 / RFU, EDEM3 / Fold change vs veh, EDEM3 / RFU, TMEM33 / Fold change vs veh, TMEM33 / RFU, WDR75 / Fold change vs veh, WDR75 / RFU, AHCTF1 / Fold change vs veh, AHCTF1 / RFU, TFRC / Fold change vs veh, TFRC / RFU, ZDHHC17 / Fold change vs veh, ZDHHC17 / RFU, NOM1 / Fold change vs veh, NOM1 / RFU, ARL8B / Fold change vs veh, ARL8B / RFU, ZBTB11 / Fold change vs veh, ZBTB11 / RFU, TAMM41 / Fold change vs veh, TAMM41 / RFU, KIAA1704 /// LOC100996395 / Fold change vs veh, KIAA1704 /// LOC100996395 / RFU, ING1 / Fold change vs veh, ING1 / RFU, TRMT61B / Fold change vs veh, TRMT61B / RFU, FUBP3 / Fold change vs veh, FUBP3 / RFU, TP53 / Fold change vs veh, TP53 / RFU, TNKS2 / Fold change vs veh, TNKS2 / RFU, ZFP14 / Fold change vs veh, ZFP14 / RFU, ACTR2 / Fold change vs veh, ACTR2 / RFU, PPP3R1 / Fold change vs veh, PPP3R1 / RFU, PIK3R1 / Fold change vs veh, PIK3R1 / RFU, HNRNPA1 / Fold change vs veh, HNRNPA1 / RFU, RNF170 / Fold change vs veh, RNF170 / RFU, ZNF28 / Fold change vs veh, ZNF28 / RFU, RNGTT / Fold change vs veh, RNGTT / RFU, OGT / Fold change vs veh, OGT / RFU, BRD1 / Fold change vs veh, BRD1 / RFU, MARS / Fold change vs veh, MARS / RFU, ZNF655 / Fold change vs veh, ZNF655 / RFU, FAHD1 / Fold change vs veh, FAHD1 / RFU, BDP1 / Fold change vs veh, BDP1 / RFU, LRRCC1 / Fold change vs veh, LRRCC1 / RFU, ARID1A / Fold change vs veh, ARID1A / RFU, ZNF146 / Fold change vs veh, ZNF146 / RFU, ZNF330 / Fold change vs veh, ZNF330 / RFU, GPN3 / Fold change vs veh, GPN3 / RFU, C9orf123 / Fold change vs veh, C9orf123 / RFU, N4BP2L2 / Fold change vs veh, N4BP2L2 / RFU, ARFIP1 / Fold change vs veh, ARFIP1 / RFU, FAM179B / Fold change vs veh, FAM179B / RFU, BCL10 / Fold change vs veh, BCL10 / RFU, UHRF1BP1L / Fold change vs veh, UHRF1BP1L / RFU, BET1 / Fold change vs veh, BET1 / RFU, CNOT2 / Fold change vs veh, CNOT2 / RFU, ZNF268 / Fold change vs veh, ZNF268 / Fold change vs veh, ZNF507 / RFU, DGCR2 / Fold change vs veh, DGCR2 / RFU, WDSUB1 / Fold change vs veh, WDSUB1 / Fold change vs veh, HSP90B1 /// MIR3652 / RFU, ADSS / Fold change vs veh, ADSS / RFU, GK / Fold change vs veh, GK / RFU, ZNF148 / Fold change vs veh, ZNF148 / RFU, TAF9 / Fold change vs veh, TAF9 / RFU, SLC1A5 / Fold change vs veh, SLC1A5 / RFU, SLMO2 / Fold change vs veh, SLMO2 / RFU, ABCC4 / Fold change vs veh, ABCC4 / RFU, LOC101060439 /// RAP1B / Fold change vs veh, LOC101060439 /// RAP1B / RFU, RFX7 / Fold change vs veh, RFX7 / RFU, GTPBP10 / Fold change vs veh, GTPBP10 / RFU, CNEP1R1 / Fold change vs veh, CNEP1R1 / RFU, BIVM-ERCC5 /// ERCC5 / Fold change vs veh, BIVM-ERCC5 /// ERCC5 / RFU, ILF3 / Fold change vs veh, ILF3 / RFU 11762660_at / Fold change /veh 11762660_at / RFU VCAN (11757783_s_at) / Fold change /veh VCAN (11757783_s_at) / RFU DDX43 (11728927_at) / Fold change /veh DDX43 (11728927_at) / RFU KRT8 (11758188_x_at) / Fold change /veh KRT8 (11758188_x_at) / RFU NKD1 (11759106_at) / Fold change /veh NKD1 (11759106_at) / RFU SRD5A1 (11742802_a_at) / Fold change /veh SRD5A1 (11742802_a_at) / RFU TPSAB1 /// TPSB2 (11721975_s_at) / Fold change /veh TPSAB1 /// TPSB2 (11721975_s_at) / RFU GSTM3 (11746129_a_at) / Fold change /veh GSTM3 (11746129_a_at) / RFU IL23R (11737362_x_at) / Fold change /veh IL23R (11737362_x_at) / RFU TMEM51 (11727254_a_at) / Fold change /veh TMEM51 (11727254_a_at) / RFU PIWIL2 (11732686_x_at) / Fold change /veh PIWIL2 (11732686_x_at) / RFU ORM1 (11744905_x_at) / Fold change /veh ORM1 (11744905_x_at) / RFU CCDC152 (11743942_at) / Fold change /veh CCDC152 (11743942_at) / RFU ECM1 (11717891_a_at) / Fold change /veh ECM1 (11717891_a_at) / RFU IL23R (11748794_a_at) / Fold change /veh IL23R (11748794_a_at) / RFU TNFAIP8L3 (11732012_x_at) / Fold change /veh TNFAIP8L3 (11732012_x_at) / RFU MBOAT4 (11741988_at) / Fold change /veh MBOAT4 (11741988_at) / RFU 11764193_at / Fold change /veh 11764193_at / RFU TMEM53 (11763286_at) / Fold change /veh TMEM53 (11763286_at) / RFU MAGEB2 (11727129_at) / Fold change /veh MAGEB2 (11727129_at) / RFU TMEM200A (11744735_a_at) / Fold change /veh TMEM200A (11744735_a_at) / RFU CCDC152 (11751479_a_at) / Fold change /veh CCDC152 (11751479_a_at) / RFU FAM211A (11726209_a_at) / Fold change /veh FAM211A (11726209_a_at) / RFU RGS16 (11746705_a_at) / Fold change /veh RGS16 (11746705_a_at) / RFU VCAN (11755009_s_at) / Fold change /veh VCAN (11755009_s_at) / RFU RHOB (11743442_s_at) / Fold change /veh RHOB (11743442_s_at) / RFU RGS16 (11720943_a_at) / Fold change /veh RGS16 (11720943_a_at) / RFU RGS16 (11720944_at) / Fold change /veh RGS16 (11720944_at) / RFU, VPS4B / Fold change vs veh, VPS4B / RFU, CREB1 / Fold change vs veh, CREB1 / RFU, DNAJC13 / Fold change vs veh, DNAJC13 / RFU, GNAQ / Fold change vs veh, GNAQ / RFU, CDK5R1 / Fold change vs veh, CDK5R1 / RFU, ZRANB3 / Fold change vs veh, ZRANB3 / RFU, CUL4A / Fold change vs veh, CUL4A / RFU, CCNY / Fold change vs veh, CCNY / RFU, UFL1 / Fold change vs veh, UFL1 / RFU, COG3 / Fold change vs veh, COG3 / RFU, DIAPH2 / Fold change vs veh, DIAPH2 / RFU, SKA2 / Fold change vs veh, SKA2 / RFU, AFF3 / Fold change vs veh, AFF3 / RFU, LMF1 / Fold change vs veh, LMF1 / RFU, IPO11 / Fold change vs veh, IPO11 / RFU, DFFB / Fold change vs veh, DFFB / RFU, FOXP1 / Fold change vs veh, FOXP1 / RFU, CARD8 / Fold change vs veh, CARD8 / RFU, STRN3 / Fold change vs veh, STRN3 / RFU, ADK / Fold change vs veh, ADK / RFU, RASSF2 / Fold change vs veh, RASSF2 / RFU, WIPF1 / Fold change vs veh, WIPF1 / RFU, LARP1B / Fold change vs veh, LARP1B / RFU, RASA1 / Fold change vs veh, RASA1 / RFU, RB1 / Fold change vs veh, RB1 / RFU, PPFIA1 / Fold change vs veh, PPFIA1 / RFU, MAT2A / Fold change vs veh, MAT2A / RFU, CCT5 / Fold change vs veh, CCT5 / RFU, WDR92 / Fold change vs veh, WDR92 / RFU, CUX1 / Fold change vs veh, CUX1 / RFU, TTC7A / Fold change vs veh, TTC7A / RFU, TMEM135 / Fold change vs veh, TMEM135 / RFU, DEPTOR / Fold change vs veh, DEPTOR / RFU, CPM / Fold change vs veh, CPM / RFU, DNAJB6 / Fold change vs veh, DNAJB6 / RFU, CACNA2D3 / Fold change vs veh, CACNA2D3 / RFU, DTX4 / Fold change vs veh, DTX4 / RFU, TFCP2 / Fold change vs veh, TFCP2 / RFU, GMCL1 /// GMCL1P1 / Fold change vs veh, GMCL1 /// GMCL1P1 / RFU, AEBP2 / Fold change vs veh, AEBP2 / RFU, SNHG1 /// SNORD22 /// SNORD25 /// SNORD26 /// SNORD27 /// SNORD28 /// SNORD29 /// SNORD31 / Fold change vs veh, SNHG1 /// SNORD22 /// SNORD25 /// SNORD26 /// SNORD27 /// SNORD28 /// SNORD29 /// SNORD31 / Fold change (Aza/veh), C12orf56 (ProbeSet 11735607_a_at) / Fold change (ACY-1035/veh), C12orf56 (ProbeSet 11735607_a_at) / Fold change (Aza/veh), FGFR1OP (ProbeSet 11751329_s_at) / Fold change (ACY-1035/veh), FGFR1OP (ProbeSet 11751329_s_at) / Fold change (Aza/veh), VPS36 (ProbeSet 11739960_a_at) / Fold change (ACY-1035/veh), VPS36 (ProbeSet 11739960_a_at) / RFU SYPL1 (11715823_x_at) / Fold change /veh SYPL1 (11715823_x_at) / RFU IGFBP7 (11715501_s_at) / Fold change /veh IGFBP7 (11715501_s_at) / RFU REEP3 (11722064_at) / Fold change /veh REEP3 (11722064_at) / RFU IGLL1 (11728026_x_at) / Fold change /veh IGLL1 (11728026_x_at): dose or concentration left out as unconfirmed", "conditions": "ProbeSet 11764057_s_at; LIST B"}
{"compound": "Nc1ncn([C@@H]2O[C@H](CO)[C@@H](O)[C@H]2O)c(=O)n1", "note": "[azacitidine]", "values": [{"measurement": "Fold change vs veh, C1orf63", "value": 1.09}]}
